Like-named read-outs stand apart in the source and are kept apart here.
Key:
NCI-H82 cell [1] = experiment: Mitochondria membrane potential difference by TMRM, NCI-H82 cell; format: cell-based
Text: (§1) For cells with active mitochondria permeability transition pore, adding peroxide (such as H2O2) could increase the activity of mitochondria permeability transition pore, resulting in a decrease in mitochondria membrane potential.
(§2) The mitochondria membrane potential difference was detected by Tetramethylrhodamine (TMRM), the high fluorescence intensity of TMRM represented the high membrane potential difference.

Daoy cell [2] = experiment: Mitochondria membrane potential difference by TMRM, Daoy cell; format: cell-based, human
Text: as §1, §2

[3] = system: oxidative phosphorylation pathway of mitochondria; experiment: Cellular oxygen consumption (OCR), XFe metabolic analysis system; format: cell-based; settings: NCI-H82 cell; 118.2 μM; within half an hour; FIG. 1
Experimental: The oxygen required by cell was mainly consumed in the mitochondria respiratory chain, so the measurement of cellular oxygen consumption (OCR, oxygen consumption rate) could directly reflect the activity of the oxidative phosphorylation pathway of mitochondria. In this experiment, the XFe metabolic analysis system was used to measure the oxygen consumption of NCI-H82 cell in the presence or absence of Compound SJ2858 (baicalein) and Compound SJ2775 (baicalin).
Rotenone (abbreviated as RO, 0.5 μM) is a known inhibitor of mitochondria oxidative phosphorylation pathway complex I, Antimycin A (abbreviated as AA, 0.5 μM) is a known inhibitor of mitochondria oxidative phosphorylation pathway complex III. Compound SJ2858, 73.2 μM; Compound SJ2775, 118.2 μM.

NCI-H82 cell [4] = experiment: Cell viability, Promega CellTiter-Glo, NCI-H82 cell; format: cell-based; settings: NCI-H82 cell without CSA (inactive mPTP); read-out: IC50 of cell viability inhibition
Experimental: (§3) Cell viability was detected by using the Promega CellTiter-Glo kit, the kit reflected cell viability by directly measuring intracellular ATP content. […] Daoy cell and NCI-H82 cell were cultured in DMEM containing 10% FBS (plus p/s).

Daoy cell [5] = experiment: Cell viability, Promega CellTiter-Glo, Daoy cell; format: cell-based, human; settings: read-out: IC50 of cell viability inhibition
Experimental: as §3

Structure (SMILES)	Effect on membrane potential (in words) (NCI-H82 cell [1])	Relative TMRM signal intensity (%), mean value (NCI-H82 cell [1]; H2O2 +, CsA −) [%]	Effect on membrane potential (in words) (Daoy cell [2])	Relative TMRM signal intensity (%), mean value (Daoy cell [2]; H2O2 +, CsA −) [%]	Inhibition of oxygen consumption (in words) [3]	IC50 (NCI-H82 cell [4]) [µM]	IC50 (Daoy cell [5]; Daoy cell with CSA (1.5 μM mPTP inhibitor)) [µM]	IC50 (Daoy cell [5]; Daoy cell without CSA (active mPTP)) [µM]
OO [Compound H2O2, H2O2]	not affected	119	down-regulated	82				
O=C(O)[C@H]1O[C@@H](Oc2cc3oc(-c4ccccc4)cc(=O)c3c(O)c2O)[C@H](O)[C@@H](O)[C@@H]1O [Compound SJ2775, baicalin]					significantly inhibit	38.6	45.4	> 100
